Measurements taken from patent publication US12202815B2, “Selective androgen receptor degrader (SARD) ligands and methods of use thereof” (priority 2018, dated 2025).
Where “and” joins values, the source holds several entries; their conditions need not be identical. Equal values may be shown once. Entries after “also recorded” stand apart in the source; their conditions may differ. Read-outs that look alike come from different tables or passages of the source.

What was measured:
RLM metabolism half-life = type: in vitro ADME; conditions: rat liver microsomes
Protocol: (§1) The assay was done in a final volume of 0.5 ml in duplicates (n=2). […] After pre-incubation, reaction was started by addition of 1 mM NADPH (pre-incubated at 37° C.). Incubations were carried out in triplicate and at various time-points (0, 5, 10, 15, 30 and 60 minutes) 100 μl aliquots were removed and quenched with 100 μl of acetonitrile containing internal standard. Samples were vortex mixed and centrifuged at 4000 rpm for 10 minutes. The supernatants were transferred to 96 well plates and submitted for LC-MS/MS analysis. As control, sample incubations done in absence of NADPH were included. From % PCR (% Parent Compound Remaining), rate of compound disappearance is determined (slope) and in vitro CLint (μl/min/mg protein) was calculated.

[1] = type: in vitro ADME; conditions: human liver microsomes
Protocol: as §1

[2] = High dose Hershberger experiment, 7 days oral; type: in vivo, Sprague Dawley rat; conditions: for Body wt. on sac. day / Day 0 body wt.: individual animals
Protocol: Body weights were recorded on day 0 and day 7 (Table 4B). On day 7, animals were sacrificed and organs were observed.

[3] = test system: >450 human kinases and mutant variants; experiment: KINOMEscan panel cross-reactivity profile; type: binding; conditions: panel of >460 kinases and mutants
Protocol: (§2) Screening “hits” are identified by measuring the amount of kinase captured in test versus control samples by using a quantitative, precise and ultra-sensitive qPCR method that detects the associated DNA label.
(§3) For most assays, kinase-tagged T7 phage strains were grown in parallel in 24-well blocks in an E. coli host derived from the BL21 strain. […] The lysates were centrifuged (6,000×g) and filtered (0.2 μm) to remove cell debris. The remaining kinases were produced in HEK-293 cells and subsequently tagged with DNA for qPCR detection. […] The liganded beads were blocked with excess biotin and washed with blocking buffer (SeaBlock (Pierce), 1% BSA, 0.05% Tween 20, 1 mM DTT) to remove unbound ligand and to reduce non-specific phage binding. […] Test compounds were prepared as 40× stocks in 100% DMSO and directly diluted into the assay. All reactions were performed in polypropylene 384-well plates in a final volume of 0.02 ml. […] The kinase concentration in the eluates was measured by qPCR.

GSK3A = molecular target: T1, GSK3A (Homo sapiens, UniProt P49840); experiment: KINOMEscan competition binding assay; conditions: lower numbers indicate stronger hits
T1 construct: T7 phage fusion or DNA label for qPCR; purchased DiscoveRx
T1 sequence (P49840 whole entry, the tested form may be a part): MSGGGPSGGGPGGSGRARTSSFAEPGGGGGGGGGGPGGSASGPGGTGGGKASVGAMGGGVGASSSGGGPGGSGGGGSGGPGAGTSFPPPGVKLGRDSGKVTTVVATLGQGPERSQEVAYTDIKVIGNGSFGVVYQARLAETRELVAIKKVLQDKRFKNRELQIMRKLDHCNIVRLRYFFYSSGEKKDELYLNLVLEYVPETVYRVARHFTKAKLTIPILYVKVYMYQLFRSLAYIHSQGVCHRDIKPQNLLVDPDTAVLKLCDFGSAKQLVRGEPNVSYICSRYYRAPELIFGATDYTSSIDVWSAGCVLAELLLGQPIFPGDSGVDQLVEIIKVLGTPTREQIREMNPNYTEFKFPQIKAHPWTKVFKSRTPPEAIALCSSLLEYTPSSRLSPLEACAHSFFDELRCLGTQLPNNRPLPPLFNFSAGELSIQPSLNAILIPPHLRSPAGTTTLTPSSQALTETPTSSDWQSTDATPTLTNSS
Protocol: as §2, §3

MYLK = molecular target: T2, MYLK (Homo sapiens, UniProt Q15746); experiment: KINOMEscan competition binding assay; conditions: lower numbers indicate stronger hits
T2 construct: T7 phage fusion or DNA label for qPCR; purchased DiscoveRx
T2 sequence (Q15746 whole entry, the tested form may be a part): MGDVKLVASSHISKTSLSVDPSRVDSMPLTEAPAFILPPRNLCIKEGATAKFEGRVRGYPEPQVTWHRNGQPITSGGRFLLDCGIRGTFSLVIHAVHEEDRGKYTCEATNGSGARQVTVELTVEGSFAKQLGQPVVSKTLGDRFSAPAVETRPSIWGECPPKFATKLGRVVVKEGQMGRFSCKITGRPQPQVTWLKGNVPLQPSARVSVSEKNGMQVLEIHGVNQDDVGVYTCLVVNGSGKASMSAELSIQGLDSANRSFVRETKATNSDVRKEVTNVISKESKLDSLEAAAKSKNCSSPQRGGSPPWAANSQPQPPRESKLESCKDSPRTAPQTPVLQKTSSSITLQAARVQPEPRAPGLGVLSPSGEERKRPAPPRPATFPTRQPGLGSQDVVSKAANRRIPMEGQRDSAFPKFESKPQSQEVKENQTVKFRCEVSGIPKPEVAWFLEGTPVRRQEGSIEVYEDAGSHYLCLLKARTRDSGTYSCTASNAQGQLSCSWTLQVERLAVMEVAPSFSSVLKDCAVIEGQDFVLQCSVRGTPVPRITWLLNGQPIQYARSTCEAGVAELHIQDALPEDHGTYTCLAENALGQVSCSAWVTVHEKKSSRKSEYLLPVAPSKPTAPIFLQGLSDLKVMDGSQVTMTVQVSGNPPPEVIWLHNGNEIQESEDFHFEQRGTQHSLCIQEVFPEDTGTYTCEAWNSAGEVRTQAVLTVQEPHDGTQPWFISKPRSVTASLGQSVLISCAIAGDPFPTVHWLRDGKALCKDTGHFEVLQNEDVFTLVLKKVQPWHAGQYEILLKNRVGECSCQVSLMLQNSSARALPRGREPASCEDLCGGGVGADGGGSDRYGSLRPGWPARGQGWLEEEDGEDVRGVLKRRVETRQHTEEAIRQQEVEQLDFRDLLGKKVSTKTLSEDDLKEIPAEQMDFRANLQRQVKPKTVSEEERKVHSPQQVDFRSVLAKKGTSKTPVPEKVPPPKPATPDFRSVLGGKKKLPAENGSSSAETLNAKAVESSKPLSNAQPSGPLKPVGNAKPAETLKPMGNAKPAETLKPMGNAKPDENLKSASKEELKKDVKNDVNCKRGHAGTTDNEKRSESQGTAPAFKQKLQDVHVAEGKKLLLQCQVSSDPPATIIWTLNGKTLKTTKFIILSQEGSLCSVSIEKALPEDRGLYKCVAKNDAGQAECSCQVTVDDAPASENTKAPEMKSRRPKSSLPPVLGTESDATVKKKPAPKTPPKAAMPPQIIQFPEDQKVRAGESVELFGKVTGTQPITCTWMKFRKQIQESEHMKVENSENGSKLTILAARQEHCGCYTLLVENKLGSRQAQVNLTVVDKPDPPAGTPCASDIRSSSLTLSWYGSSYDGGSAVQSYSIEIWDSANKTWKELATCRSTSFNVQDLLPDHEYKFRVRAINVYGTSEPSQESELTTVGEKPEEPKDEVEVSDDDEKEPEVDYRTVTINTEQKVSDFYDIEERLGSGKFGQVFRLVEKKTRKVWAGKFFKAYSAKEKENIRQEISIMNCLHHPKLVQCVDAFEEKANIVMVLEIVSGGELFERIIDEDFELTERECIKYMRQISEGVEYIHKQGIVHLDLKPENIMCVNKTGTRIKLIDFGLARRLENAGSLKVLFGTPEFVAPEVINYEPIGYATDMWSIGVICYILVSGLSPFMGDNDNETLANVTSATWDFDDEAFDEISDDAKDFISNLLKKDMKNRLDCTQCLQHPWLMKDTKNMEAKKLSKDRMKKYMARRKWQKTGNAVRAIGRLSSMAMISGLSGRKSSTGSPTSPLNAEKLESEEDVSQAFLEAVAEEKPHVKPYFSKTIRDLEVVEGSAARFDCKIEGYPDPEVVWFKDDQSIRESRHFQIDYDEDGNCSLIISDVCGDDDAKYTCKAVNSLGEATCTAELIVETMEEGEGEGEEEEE
Protocol: as §2, §3

>160 GPCR's = experiment: gpcrMAX panel, PathHunter beta-arrestin antagonist primary screen; type: cell-based
Protocol: The assays were performed utilizing the PathHunter beta-arrestin enzyme fragment complementation (EFC) technology.
The PathHunter® β-Arrestin assay monitors the activation of a GPCR in a homogenous, non-imaging assay format using a technology developed by DiscoveRx called Enzyme Fragment Complementation (EFC) with β-galactosidase (β-Gal) as the functional reporter. […] EA is fused to β-Arrestin and ED is fused to the GPCR of interest. When the GPCR is activated and β-Arrestin is recruited to the receptor, ED and EA complementation occurs, restoring β-Gal activity which is measured using chemiluminescent PathHunter® Detection Reagents.
PathHunter cell lines were expanded from freezer. Cells were seeded in a total volume of 20 μL into white walled, 384-well microplates and incubated at 37° C. for the appropriate time prior to testing.
Intermediate dilution of sample stocks was performed to generate 5× sample in assay buffer. […]
Microplates were read following signal generation with a PerkinElmer Envision™ instrument for chemiluminescent signal detection.
Compound activity was analyzed using CBIS data analysis suite (ChemInnovation, CA). For antagonist mode assays, percentage inhibition was calculated using the following formula: % Inhibition=100%×(1−(mean RLU of test sample−mean RLU of vehicle control)/(mean RLU of EC80 control−mean RLU of vehicle control) [where RLU is relative light unit]).

[4] = for Conc. 1065: individual rat serum
in vivo = conditions: male, Sprague Dawley, rat, 20 mpk
[5] = test system: MDVR (enzalutamide-resistant VCaP prostate cancer cells); experiment: MDVR xenograft in SRG rats, 30 days oral dosing; conditions: rat, in vivo
Protocol: Male Sprague Dawley Rag2−/−; Il2rg−/− (SRG) rats were housed in group of three rats/cage. They were provided with food and water ad libitum and were maintained in a 12 hour light/dark cycle.
Cell inoculations were carried out in a Class II/A2 biosafety cabinet. The surgical space was cleaned with Clidox® and sterile drapes were placed on the surface. The animals were anesthetized using inhaled isoflurane. Prior to injection, the hind flank was shaved and cleaned with alcohol prep pads. Animals were placed back in their home cage and monitored until they recovered and sternal recumbency was observed.
Cell inoculation: All animals were inoculated with a total volume of 500 μL subcutaneously in the left hind flank. The inoculation suspension consisted of 250 μL of cell suspension mixed with 250 μL of Matrigel, diluted to 10 mg/mL working solution with DMEM, which was mixed on ice immediately by pipetting the cells into the Matrigel using a p1000 micropipette fitted with a sterile aerosol resistant tip prior to injection. The final concentration of Matrigel was 5 mg/mL. […] Each needle/syringe was used for only 1 animal.
SARDs were dissolved at 5-, 10-, or 15 mg/mL in vehicle in a biosafety cabinet using sterile reagents and consumables.
One-way ANOVA and Tukey's post-hoc test were used to compare the difference in percent change in body weight among treatment groups. […]

[6] = Pharmacokinetics in male Sprague Dawley rats (oral 7 days, iv Day 1); conditions: male, Sprague Dawley, rat, in vivo
Protocol: At initial dosing, the animals were 12 weeks of age. The animals were group housed (up to three animals/cage/group) in polycarbonate cages with hardwood chip bedding. […] Water was provided fresh daily, ad libitum. […] As necessary, the 12-hour dark cycle was interrupted to accommodate study procedures. […] Individual doses were calculated based on body weights recorded on Day 1 and Day 7 of dose administration. […] A single intravenous dose was administered via a tail vein and blood sample on Day 1.
Animals were weighed at the time of animal selection and on Day 1 and Day 7 of dose administration.
Centrifugation began within 1 hour of collection. Plasma was placed into 96-well tubes with barcode labels. Plasma was maintained on dry ice prior to storage at approximately −70° C. Drug concentrations were measured by established chromatography/mass spectrometry (LC-MS/MS) methods.

C[C@](O)(Cn1cc(C#N)cn1)C(=O)Nc1cnc(C#N)c(C(F)(F)F)c1 [Compound 1065, (S)-3-(4-cyano-1H-pyrazol-1-yl)-N-(6-cyano-5-(trifluoromethyl)pyridin-3-yl)-2-hydroxy-2-methylpropanamide]
RLM Metebolism (H.L. min) (RLM metabolism half-life): 84 min
HLM Metabolism (H.L. min) [1]: STABLE
HLM % metabolized after 60 min ([1]; 60 min): 0%
gross pathology (in words) ([2]; 100 and 200 mpk, 7 days): no gross pathology
Body wt. on sac. day ([2]; 100 mpk oral 7 days): 475 g and 333 g and 292 g
Day 0 body wt. ([2]; 100 mpk oral 7 days): 404 g and 280 g and 245 g
Body wt. on sac. day ([2]; 200 mpk oral 7 days): 326 g and 313 g and 424 g
Day 0 body wt. ([2]; 200 mpk oral 7 days): 270 g (2×) and 440 g
number of kinases bound (<50% of Percent of Control) [3]: 2
Percent Control (GSK3A): 6.4%
Percent Control (MYLK): 45%
GPCR cross-reactivity (in words) (>160 GPCR's): no GPCR was inhibited by 50%; also recorded: No GPCR was inhibited by >50%
Conc. 1065 ([4]; 1 mg/kg): 81.58 nM and 87.25 nM and 120.1244 nM and 134.5505 nM and 129.9323 nM
Conc. 1065 ([4]; 5 mg/kg): 967.3936 nM and 798.7984 nM and 630.4879 nM and 691.1901 nM and 485.4264 nM
Conc. 1065 ([4]; 10 mg/kg): 637.641 nM and 915.1312 nM and 824.8076 nM and 681.9936 nM and 795.917 nM
Conc. 1065 ([4]; 20 mg/kg): 1286.902 nM and 1298.179 nM and 1360.687 nM and 1397.834 nM and 1193.986 nM
Serum Conc. ([4]; Table 2, rats 20 mg/kg, 24-30 hours after last dose): 561 nM
Serum Conc. ([4]; Table 3, 20 mg/kg Hershberger): 561 nM
serum drug level (bioavailability) ([4]; rats dosed at 20 mg/kg): 561 nM
concentration at 30 h (in vivo): 561 nM
potency vs 1002 in inhibiting enzalutamide-resistant prostate cancer (in words) [5]: approximately two fold more potent than 1002
AUC0-24 ([6]; iv, 5 mg/kg): 31800 ng·h/mL
AUC(0-inf) ([6]; iv, 5 mg/kg): 40700 ng·h/mL
AUC(0-t) ([6]; iv, 5 mg/kg): 31800 ng·h/mL
C0 ([6]; iv, 5 mg/kg): 2510 ng/mL
Cmax ([6]; iv, 5 mg/kg): 2600 ng/mL
DN AUC0-24 ([6]; iv, 5 mg/kg): 6360
Tmax ([6]; iv, 5 mg/kg): 0.5 h
Vd ([6]; iv, 5 mg/kg): 1.86 L/kg
clearance ([6]; iv, 5 mg/kg): 2.05 mL/min/kg
half-life ([6]; iv, 5 mg/kg): 10.5 h
AUC(0-t) ([6]; po, 1 mg/kg): 7300 ng·h/mL
AUC0-24 ([6]; po, 1 mg/kg/day): 7300 ng·h/mL
AUC(0-t) ([6]; po, 1 mg/kg/day): 7300 ng·h/mL
Cmax ([6]; po, 1 mg/kg/day): 458 ng/mL
DN AUC0-24 ([6]; po, 1 mg/kg/day): 7300
Tmax ([6]; po, 1 mg/kg/day): 6 h
AUC(0-t) ([6]; po, 5 mg/kg): ~35000 ng·h/mL
AUC0-24 ([6]; po, 5 mg/kg/day): 34900 ng·h/mL
AUC(0-t) ([6]; po, 5 mg/kg/day): 34900 ng·h/mL
Cmax ([6]; po, 5 mg/kg/day): 2220 ng/mL
DN AUC0-24 ([6]; po, 5 mg/kg/day): 6980
Tmax ([6]; po, 5 mg/kg/day): 6 h
AUC0-24 ([6]; po, 10 mg/kg/day): 59500 ng·h/mL
AUC(0-t) ([6]; po, 10 mg/kg/day): 59500 ng·h/mL
Cmax ([6]; po, 10 mg/kg/day): 3550 ng/mL
DN AUC0-24 ([6]; po, 10 mg/kg/day): 5950
Tmax ([6]; po, 10 mg/kg/day): 6 h
AUC(0-t) ([6]; po, 20 mg/kg): 102000 ng·h/mL
AUC0-24 ([6]; po, 20 mg/kg/day): 102000 ng·h/mL
AUC(0-t) ([6]; po, 20 mg/kg/day): 102000 ng·h/mL
Cmax ([6]; po, 20 mg/kg/day): 5550 ng/mL
DN AUC0-24 ([6]; po, 20 mg/kg/day): 5120
Tmax ([6]; po, 20 mg/kg/day): 6 h
